From PubChem BioAssay AID330 (DTP/NCI, 2004)
Toxic doses and inconclusive results are not listed.

Test system: P388 leukemia ip, CD2F1 mice, survival T/C
Assay: NCI In Vivo Anticancer Drug Screen. Data for tumor model P388 Leukemia (intraperitoneal) in CD2F1 (CDF1) mice
Conditions: endpoint: median survival time, higher = longer survival
Summary of the method: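 Mice carrying the transplanted tumor received test compound or vehicle. Survival was recorded in each group, and the value is the treated-group measurement divided by that of the vehicle-treated control group.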

[1] = dose: 50.0 mg/kg/injection, schedule: Q01DX005 (ip), vehicle: Klucel (hydroxypropylcellulose) (HPC)
[2] = dose: 100.0 mg/kg/injection, schedule: Q01DX005 (ip), vehicle: Klucel (hydroxypropylcellulose) (HPC)
[3] = dose: 200.0 mg/kg/injection, schedule: Q01DX005 (ip), vehicle: Klucel (hydroxypropylcellulose) (HPC)
[4] = dose: 12.5 mg/kg/injection, schedule: Q01DX009 (ip), vehicle: saline with Tween-80
[5] = dose: 25.0 mg/kg/injection, schedule: Q01DX009 (ip), vehicle: saline with Tween-80
[6] = dose: 50.0 mg/kg/injection, schedule: Q01DX005 (ip), vehicle: saline with Tween-80
[7] = dose: 100.0 mg/kg/injection, schedule: Q01DX005 (ip), vehicle: saline with Tween-80
[8] = dose: 25.0 mg/kg/injection, schedule: Q01DX009 (ip), vehicle: Klucel (hydroxypropylcellulose) (HPC)
[9] = dose: 50.0 mg/kg/injection, schedule: Q01DX009 (ip), vehicle: Klucel (hydroxypropylcellulose) (HPC)
[10] = dose: 100.0 mg/kg/injection, schedule: Q01DX009 (ip), vehicle: Klucel (hydroxypropylcellulose) (HPC)
[11] = dose: 200.0 mg/kg/injection, schedule: Q01DX009 (ip), vehicle: Klucel (hydroxypropylcellulose) (HPC)

SMILES: COc1ccc2c(c1)OC(C)(C)C(c1ccccc1)=C2c1ccc(OCCBr)c([N+](=O)[O-])c1
- T/C [1]: 107 % of control
- T/C [2]: 98 % of control
- T/C [3]: 101 % of control

SMILES: O=C1OCC/C1=C\NCCCN/C=C1\CCOC1=O
- T/C (dose: 60.0 mg/kg/injection, schedule: Q01DX005 (ip), vehicle: saline with Tween-80): 107 % of control
- T/C (dose: 120.0 mg/kg/injection, schedule: Q01DX005 (ip), vehicle: saline with Tween-80): 100 % of control
- T/C (dose: 240.0 mg/kg/injection, schedule: Q01DX005 (ip), vehicle: saline with Tween-80): 105 % of control

SMILES: Nc1nc(N)c(-c2cccc(Cl)c2)c(CBr)n1
- T/C [4]: 113 % of control
- T/C [5]: 114 % of control

SMILES: CN(C)C1C(=O)C(C(=O)NCN2CCCC2)=C(O)C2(O)C(=O)C3=C(O)c4c(O)cccc4C(C)(O)C3CC12 (centres undefined)
- T/C [6]: 96 % of control
- T/C [7]: 95 % of control
- T/C (dose: 200.0 mg/kg/injection, schedule: Q01DX005 (ip), vehicle: saline with Tween-80): 97 % of control

SMILES: CCCCCCCC/C=C\CCCCCCCCN1CCOCC1
- T/C (dose: 50.0 mg/kg/injection, schedule: Q01DX009 (ip), vehicle: saline): 97 % of control
- T/C (dose: 100.0 mg/kg/injection, schedule: Q01DX009 (ip), vehicle: saline): 106 % of control

SMILES: C=C1CCC(OC(C)=O)C2(C)C(OC(C)=O)CC3OC3(C)C2C(OC(C)=O)C2C(C)C(=O)OC2C1Cl (centres undefined)
- T/C [8]: 99 % of control
- T/C [9]: 97 % of control
- T/C [10]: 96 % of control
- T/C [11]: 93 % of control

SMILES: O=[N+]([O-])c1ccc(S(=O)(=O)C/C=C/CCl)c([N+](=O)[O-])c1
- T/C [4]: 113 % of control
- T/C [5]: 90 % of control

SMILES: COc1ccc2c(c1OC)C1NCCc3cc4c(cc3C1(OC)C2=O)OCO4 (centres undefined)
- T/C (dose: 25.0 mg/kg/injection, schedule: Q01DX005 (ip), vehicle: distilled water + Tween-80 + alcohol): 109 % of control
- T/C (dose: 50.0 mg/kg/injection, schedule: Q01DX005 (ip), vehicle: distilled water + Tween-80 + alcohol): 104 % of control
- T/C (dose: 100.0 mg/kg/injection, schedule: Q01DX005 (ip), vehicle: distilled water + Tween-80 + alcohol): 107 % of control
- T/C (dose: 200.0 mg/kg/injection, schedule: Q01DX005 (ip), vehicle: distilled water + Tween-80 + alcohol): 103 % of control

SMILES: Cc1cc(OCCS(=O)(=O)C(CCOS(C)(=O)=O)COS(C)(=O)=O)cc(C)c1Cl (centres undefined)
- T/C [9]: 105 % of control
- T/C [10]: 102 % of control
- T/C [11]: 101 % of control

SMILES: CCC(C)C(NC(=O)C(F)(F)F)C(=O)O (centres undefined)
- T/C (dose: 50.0 mg/kg/injection, schedule: Q01DX009 (ip), vehicle: saline with Tween-80): 98 % of control
- T/C (dose: 100.0 mg/kg/injection, schedule: Q01DX009 (ip), vehicle: saline with Tween-80): 98 % of control
- T/C (dose: 200.0 mg/kg/injection, schedule: Q01DX009 (ip), vehicle: saline with Tween-80): 103 % of control

SMILES: CC1=C[C@@H]2c3cccc4c3c(cn4C)C[C@H]2N(C)C1
- T/C [6]: 99 % of control
- T/C [7]: 100 % of control

SMILES: O=[N+]([O-])c1cccc(C2CC(c3ccccc3)=Nc3ccccc3S2)c1 (centres undefined)
- T/C [9]: 107 % of control
- T/C [10]: 100 % of control

SMILES: CCOC(=O)NC(C#N)=C(Cl)Cl
- T/C (dose: 6.25 mg/kg/injection, schedule: Q01DX009 (ip), vehicle: Klucel (hydroxypropylcellulose) (HPC)): 100 % of control
- T/C (dose: 12.5 mg/kg/injection, schedule: Q01DX009 (ip), vehicle: Klucel (hydroxypropylcellulose) (HPC)): 100 % of control
- T/C [8]: 101 % of control

SMILES: COc1ccc(-c2cc3cc(CCCOC4OC(COC5OCC(O)C(O)C5O)C(O)C(O)C4O)cc(OC)c3o2)cc1OC (centres undefined)
- T/C (dose: 18.75 mg/kg/injection, schedule: Q01DX005 (ip), vehicle: Klucel (hydroxypropylcellulose) (HPC)): 96 % of control
- T/C (dose: 37.5 mg/kg/injection, schedule: Q01DX005 (ip), vehicle: Klucel (hydroxypropylcellulose) (HPC)): 88 % of control

SMILES: [Cl][Pt+2][Cl].[NH-]c1ccc2[nH]c(=S)sc2c1.[NH-]c1ccc2[nH]c(=S)sc2c1
- T/C (dose: 100.0 mg/kg/injection, schedule: Q01DX001 (sc), vehicle: olive oil, sesame oil, peanut oil): 104 % of control
- T/C (dose: 200.0 mg/kg/injection, schedule: Q01DX001 (sc), vehicle: olive oil, sesame oil, peanut oil): 114 % of control
- T/C (dose: 400.0 mg/kg/injection, schedule: Q01DX001 (sc), vehicle: olive oil, sesame oil, peanut oil): 104 % of control

SMILES: Cc1cc(=O)oc2c1c(=O)[nH]n2-c1ccccc1
- T/C [1]: 95 % of control
- T/C [2]: 87 % of control
- T/C [3]: 86 % of control
